Source: PMC9412994 (Pharmaceutics, 2022)
Like-named read-outs stand apart in the source and are kept apart here.

Tests used:
human P-gp [1] = target: T1, human P-gp (Homo sapiens, UniProt P08183); conditions: MDCK-MDR1 cells, same origin; cited from earlier work
T1 construct: host or cells: MDCKII-MDR1 (stably transfected canine kidney cells)

[2] = cited from earlier work
P-gp [3] = conditions: cited from earlier work
[4] = system: bovine brain capillary endothelial cells; conditions: bovine brain capillary endothelial cells on filter inserts, co-culture with glial cells; cited from earlier work
[5] = rats, cited from earlier work
rodent P-gp = system: rodent P-gp; design: method as in PMID 32856111; conditions: LLC-PK1-Mdr1a cells; cited from earlier work
[6] = Arterial input function and plasma metabolism of the radiotracer in rats; assay type: in vivo; conditions: rat
Method: Blood samples (50 µL) were collected at selected times from the femoral artery to establish total radioactivity kinetics in arterial plasma. Plasma was separated from whole blood by centrifugation (5 min, 2054 g, 4 °C), and 20 µL of plasma and whole blood were counted using a PET cross-calibrated gamma well counter (WIZARD2, PerkinElmer, Villebon-sur-Yvette, France) to obtain the whole-blood and plasma activity curves. All data were corrected for radioactive decay from the injection time. For the larger blood samples, 80 µL plasma was deproteinized with acetonitrile. The supernatant was injected in high-performance liquid chromatography, equipped with an Atlantis® T3 5 μm 10 × 250 mm column (Waters, Guyancourt, France) and an Atlantis® T3 5 μm 19 × 10 mm pre-column (Waters) with an LB-514 radioactivity flow detector (Berthold, France, MX Z100 cell). The mobile phase was composed of water containing 0.1% (v/v) TFA (solvent A) and acetonitrile containing 0.1% (v/v) TFA (solvent B) delivered in a gradient elution mode at a flow rate of 5 mL min^−1: solvent B increased linearly from 20 to 30% from 0 to 9 min.
The method for [^11C]metoclopramide metabolism has been previously reported.

human P-gp [7] = target: T1, human P-gp; design: method as in PMID 34496661; conditions: cited from earlier work; for IC50: read-out: IC50 of TQD (P-gp inhibition)
[8] = design: method as in PMID 26585058, PMID 34496661; conditions: rat; 8 mg/kg tariquidar versus baseline; cited from earlier work
[9] = Brain PET imaging in rats at baseline and after P-gp inhibition with TQD; assay type: in vivo; conditions: rat
Method: (§1) PET acquisitions were performed using an Inveon microPET scanner (Siemens, TN, USA). […] Radiotracers were diluted in saline to obtain at least <10% ethanol in the ready-to-inject preparation.
(§2) TQD was used to inhibit P-gp function in rats. TQD was injected in a volume of 200–300 µL into the caudal vein 15 min before radiotracer injection.
(§3) Images were reconstructed with the Fourier rebinning algorithm and the three-dimensional ordered-subset expectation-maximization algorithm, including normalization, attenuation, scatter, and random corrections. Image analysis and quantification of radioactivity uptake were performed using PMOD software (version 3.9; PMOD Technologies, Zurich, Switzerland). A region of interest was drawn over the whole brain to generate time-activity curves (TACs) with time frame durations of 0.25 min, 2 × 0.5 min, 0.75 min, 4 × 1 min, 1.5 min, 4 × 2 min, 3 × 2.5 min, 3 × 3 min, and 3.5 min. Brain radioactivity was corrected for ^11C decay and expressed as the standardized uptake value (SUV) after correction by injected dose and animal weight.
(§4) The mean AUCplasma 20–30 was obtained in each condition to estimate Kp,brain = AUCbrain 20–30/AUCplasma 20–30, considering the mean metabolite-corrected arterial input function. Kp,brain were compared with a two-way ANOVA and a Tukey’s post hoc test using Graphpad Prism software (V8.0, San Diego, CA, USA).

P-gp [10] = assay: as above; assay type: in vivo; conditions: brain/plasma, with tariquidar; rat; presence of P-gp inhibition (TQD); newly calculated from published PET data of ref 21, 24
Method: as §1, §2, §3, §4

[11] = rat; 60 min post-injection; cited from earlier work
human P-gp [12] = target: T1, human P-gp; assay: Uptake assay in P-gp overexpressing MDCKII-MDR1 cells with radiolabeled substrate and tariquidar; assay type: cell-based; conditions: [11C]domperidone as substrate, 30 min incubation, CI95% 198-248 nM, read-out: IC50 of TQD (P-gp inhibition)
Method: Culture media and buffers were obtained from Fischer Scientific, France. Stably transfected MDCKII-MDR1 cells were obtained from Dr. Alfred Schinkel (National Cancer Institute, Amsterdam, The Netherlands) and were grown under a controlled atmosphere at 37 °C, 5% CO2. The culture medium was composed of DMEM Glutamax (Dulbecco’s Modified Eagle Medium, 4.5 g/Ldextrose, 1 mM pyruvate) supplemented with 10% fetal bovine serum and 1% antibiotics (penicillin and streptomycin 5000 U/mL).
Cells were seeded in 24-well plates (30,000 cells per well) in a 500 μL culture medium. Cells were grown to confluence (~2 days). […] Then, 400 μL of cell lysate was collected from each well (n = 4 wells per condition) and gamma counted using a Cobra Quantum (Perkin-Elmer, Villebon-sur-Yvette, France).
Counting values obtained in each well were normalized using Equation (1):(1) I%=R−mRzero/mRmax×100 where I% is the extent of inhibition (I%) between 0 and 100%, R is the radioactivity in the 4 tested wells, mRzero is the mean of the 4 wells without TQD, and mRmax is the difference of means between the 4 wells containing the highest concentration of TQD (800 nM) and the 4 wells without TQD. […]

T1 sequence (P08183 whole entry): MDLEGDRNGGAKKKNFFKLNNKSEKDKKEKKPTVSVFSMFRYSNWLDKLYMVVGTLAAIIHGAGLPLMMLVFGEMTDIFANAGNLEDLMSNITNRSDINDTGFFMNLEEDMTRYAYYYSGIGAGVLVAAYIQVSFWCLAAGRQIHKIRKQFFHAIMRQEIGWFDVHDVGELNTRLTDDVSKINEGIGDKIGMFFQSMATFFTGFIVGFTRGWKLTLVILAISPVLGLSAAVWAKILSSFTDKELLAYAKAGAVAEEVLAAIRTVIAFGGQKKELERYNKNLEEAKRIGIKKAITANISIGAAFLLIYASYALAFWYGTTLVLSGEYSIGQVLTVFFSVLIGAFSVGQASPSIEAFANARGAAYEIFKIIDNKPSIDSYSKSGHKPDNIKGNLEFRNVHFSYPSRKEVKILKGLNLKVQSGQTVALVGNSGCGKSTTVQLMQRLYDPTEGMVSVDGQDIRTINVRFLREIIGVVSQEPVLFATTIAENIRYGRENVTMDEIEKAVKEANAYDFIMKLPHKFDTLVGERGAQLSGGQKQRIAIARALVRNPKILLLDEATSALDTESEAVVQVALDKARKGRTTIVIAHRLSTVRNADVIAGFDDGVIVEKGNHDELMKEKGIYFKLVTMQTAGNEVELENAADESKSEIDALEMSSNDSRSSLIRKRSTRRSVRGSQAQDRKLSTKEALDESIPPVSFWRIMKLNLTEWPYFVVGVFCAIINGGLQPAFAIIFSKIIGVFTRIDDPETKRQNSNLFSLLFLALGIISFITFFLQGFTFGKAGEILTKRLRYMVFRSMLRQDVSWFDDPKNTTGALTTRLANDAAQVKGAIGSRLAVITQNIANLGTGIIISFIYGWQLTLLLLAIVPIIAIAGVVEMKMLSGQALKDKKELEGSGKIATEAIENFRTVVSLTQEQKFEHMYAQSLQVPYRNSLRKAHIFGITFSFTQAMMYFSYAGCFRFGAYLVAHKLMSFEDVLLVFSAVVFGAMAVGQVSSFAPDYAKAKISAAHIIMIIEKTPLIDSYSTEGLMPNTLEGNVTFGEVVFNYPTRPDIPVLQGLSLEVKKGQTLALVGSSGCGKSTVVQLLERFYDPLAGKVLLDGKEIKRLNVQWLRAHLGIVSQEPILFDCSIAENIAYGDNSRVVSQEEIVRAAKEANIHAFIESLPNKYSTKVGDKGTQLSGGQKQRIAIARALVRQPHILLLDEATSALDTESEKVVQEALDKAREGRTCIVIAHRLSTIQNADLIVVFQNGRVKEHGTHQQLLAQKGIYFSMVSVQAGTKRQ

For `CCN(CC)CCNC(=O)c1cc(Cl)c(N)cc1OC` [Metoclopramide], the Efflux ratio (human P-gp [1]) is listed as 1.4, the “Neurological side effects: Frequent” value [2] is listed as “extrapyramidal signs, parkinsonian syndrome, akathisia” and the “Neurological side effects: Not Frequent” value [2] is listed as “dystonia, dyskinesia, altered consciousness”. The “Neurological side effects: Rare” value [2] was “convulsions”, the “Neurological side effects: Unspecified frequency” value [2] was “late dyskinesia, neuroleptic malignant syndrome” and the “Neurological side effects: Very Frequent” value [2] was “sleepiness”. The “Fold increase in Kp,brain in P-gp deficient mice compared with wild-type mice” value (P-gp [3]) was 6.6 fold, the “Passage across in vitro BBB model compared with passage across the filter (no BBB)” value [4] was 100% and the “Kp,uu,brain” value ([5]; another study) was 0.235. The “Tissue/plasma ratio (Kp,brain)” value ([5]; ex vivo) was 1.72, the “Kp,uu,brain” value [5] was 2.4 and the Efflux ratio (rodent P-gp) was 1.6.
With `O=c1[nH]c2cc(Cl)ccc2n1C1CCN(CCCn2c3ccccc3[nH][11c]2=O)CC1` [[^11C]domperidone] the “Parent (unmetabolized) fraction in plasma” value ([6]; 60 min post-injection) was greater than 30% and the “Effect of TQD on the fraction of parent (unmetabolized) radiotracer in plasma” value ([6]; with versus without TQD) was “did not impact”.
In the case of `CCN(CC)CCNC(=O)c1cc(Cl)c(N)cc1O[11CH3]` [[^11C]metoclopramide], the “Uptake ratio (intracellular radioactivity after complete P-gp inhibition / without inhibition)” value (human P-gp [7]; MDCKII-MDR1 cells, 200 nM TQD) is given as 1.4 ± 0.07, the “Maximal increase in brain exposure” value [8] is given as 2.9 fold and the Kp ([9]; brain/plasma, absence of P-gp inhibition, newly calculated from published PET data of ref 21, 24) is given as 10.1 ± 2.01. For the same molecule, the “Baseline brain exposure (AUCbrain), fold higher compared with [11C]domperidone” value ([9]; baseline) was 2.4 fold, the Kp (P-gp [10]) was 47 ± 5.52 and the “Parent (unmetabolized) fraction in plasma” value [11] was “could hardly be detected”.
For `COc1cc2c(cc1OC)CN(CCc1ccc(NC(=O)c3cc(OC)c(OC)cc3NC(=O)c3cnc4ccccc4c3)cc1)CC2` [tariquidar, Tariquidar], the IC50 (human P-gp [7]; [11C]N-desmethyl-loperramide as substrate probe, same experimental conditions) is given as 0.019 µM, the IC50 (human P-gp [7]; [11C]metoclopramide as substrate, MDCKII-MDR1 cells, CI95% 2-8 nM) is given as 0.004 µM and the IC50 (human P-gp [7]; [11C]verapamil as substrate probe, same experimental conditions) is given as 0.045 µM. For the same molecule, the IC50 (human P-gp [12]) was 0.221 µM.
